Biological target: T1, human GPR84 receptor (Homo sapiens, UniProt Q9NQS5)
T1 construct: host or cells: HEK293, transient transfection
Assay: Gαi biosensor BRET assay in HEK293 cells (antagonism of ZQ-16)
Format: cell-based
Settings: for inhibition at 10 µM: HEK293, single concentration 10 μM (designated F); for IC50: HEK293 cells, antagonism of 200 nmol/L ZQ-16; for inhibition at 2 µM: HEK293, single concentration 2 μM (designated A)
Procedure, shortened: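 HEK293 cells transiently expressing human GPR84, Gαi2-Rluc8, GFP10-Gγ2 and Gβ1, in Tyrode's buffer pH 7.5. Compounds preincubated 5 min at 37° C, then 200 nmol/L ZQ-16 for 5 min at room temperature; coelenterazine 400A 5 μmol/L. BRET2 acceptor/donor ratio, background- and vehicle-corrected net BRET.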

T1 sequence (Q9NQS5 whole entry): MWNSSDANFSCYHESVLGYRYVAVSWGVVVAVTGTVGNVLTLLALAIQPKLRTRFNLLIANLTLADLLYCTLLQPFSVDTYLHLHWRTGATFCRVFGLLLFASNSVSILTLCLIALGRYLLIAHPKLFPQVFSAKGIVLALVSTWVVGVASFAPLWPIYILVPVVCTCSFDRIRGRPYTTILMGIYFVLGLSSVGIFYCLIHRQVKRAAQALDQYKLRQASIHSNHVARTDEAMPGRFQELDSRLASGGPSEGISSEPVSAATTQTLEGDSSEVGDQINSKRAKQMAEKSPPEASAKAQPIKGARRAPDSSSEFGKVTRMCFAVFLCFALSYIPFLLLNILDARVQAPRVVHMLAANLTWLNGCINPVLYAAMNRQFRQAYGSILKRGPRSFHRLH

Structure (SMILES) | inhibition at 10 µM [%] | IC50 [nM] | inhibition at 2 µM [%]
COC(C)(c1cccc(C#CC2CC2)c1)c1cn(CC2CCCCO2)nn1 (centres unmarked) [Compound I-631] | > 75 |  | 
COC(c1cn(CC2CCCCO2)nn1)c1cc(C#CC(C)(C)O)ccc1F (centres unmarked) [Compound I-632] | ≤ 25 |  | 
CC(c1cc(C#CC2CC2)ccn1)c1cn(CC2CCCCO2)nn1 (centres unmarked) [Compound I-633] | 50 to 75 |  | 
Cc1cc(C#CC2CC(F)(F)C2)ccc1-c1cn(CC2CCCCO2)nn1 (centres unmarked) [Compound I-640] | > 75 |  | 
COC(c1cn(CC2CC(C)(C)CO2)nn1)c1cc(C#CC2CC2)ccc1C (centres unmarked) [Compound I-642] | > 75 | 1000 to 3000 | 
Cc1ccc(C#CC2CC2)cc1Cc1cn(CC2CC(C)(C)CO2)nn1 (centres unmarked) [Compound I-643] |  |  | 50 to 75
Cc1cc(C#CCn2cc(C3CC3)nn2)ccc1-c1cn(CC2CCCCO2)nn1 (centres unmarked) [Compound I-645] | > 75 |  | 
COC(c1cn(CC2CCCCO2)cn1)c1cc(C#CC2CC2)ccc1C (centres unmarked) [Compound I-646] |  | 300 to 1000 | > 75
CCc1cc(N2CC(C)(C)C2)ccc1-c1cn(CC2Oc3ccccc3O2)nn1 [Compound I-647] |  | 300 to 1000 | > 75
Cc1cc(C#CC2CC(F)(F)C2)cnc1-c1cn(CC2CCCCO2)nn1 (centres unmarked) [Compound I-648] | > 75 |  | 
Cc1cc(N2CC3(C2)CN(c2ccccn2)C3)ccc1-c1cn(CC2CCCCO2)nn1 (centres unmarked) [Compound I-652] | ≤ 25 |  | 
COC(c1cn(CC2CCCCO2)nn1)c1cc(C#CC2CC2)ccc1C(F)(F)F (centres unmarked) [Compound I-655] | 50 to 75 |  | 
COC(c1cn(CC2CCCCO2)nn1)c1c(C)ccc(C#CC2CC2)c1F (centres unmarked) [Compound I-656] | > 75 | 300 to 1000 | 
Cc1cc(N2CCN(CC3CC4CCN3CC4)CC2)ccc1-c1cn(CC2CCCCO2)nn1 (centres unmarked) [Compound I-657] | ≤ 25 |  | 
CCc1cc(C#CCNc2ccccn2)cnc1-c1cn(C[C@H]2CCCCO2)nn1 [Compound I-658] | > 75 | > 3000 | 
Cc1cc(N2CC(C)(CN3CC(C)(C)C3)C2)ccc1-c1cn(CC2CCCCO2)nn1 (centres unmarked) [Compound I-660] | ≤ 25 |  | 
Cc1cc(N2CCN(CC3CC4CCN3CC4)CC2)ccc1-c1cn(CC2OCC(C)(C)CO2)nn1 (centres unmarked) [Compound I-661] | ≤ 25 |  | 

Structure (SMILES) | inhibition at 10 µM [%] | IC50 [nM] | inhibition at 2 µM [%]
Cc1cc(C#CC2CC2)ccc1-c1cn(CC2OCC(F)(F)CO2)nn1 [Compound I-670] | 50 to 75 |  | 
Cc1cc(N2CCN(Cc3ccccn3)CC2)ccc1-c1cn(C[C@H]2CCCCO2)cn1 [Compound I-671] | > 75 | 1000 to 3000 | 
Cc1cc(N2CCN(Cc3ccccn3)CC2)ccc1-c1cncn1C[C@H]1CCCCO1 [Compound I-672] | ≤ 25 |  | 
COC(c1cn(Cc2ncccn2)nn1)c1cc(C#CC2CC2)ccc1C (centres unmarked) [Compound I-674] |  | 300 to 1000 | > 75
Cc1cc(N2CC(C)(CN(C)c3ccccn3)C2)ccc1-c1cn(CC2CCCCO2)nn1 (centres unmarked) [Compound I-675] | > 75 |  | 
Cc1ccc(C#CC2CC2)cc1C1(c2cn(CC3CCCCO3)nn2)CC1 (centres unmarked) [Compound I-679, 4-(1-(5-(cyclopropylethynyl)-2-methylphenyl)cyclopropyl)-1-((tetrahydro-2H-pyran-2-yl)methyl)-1H-1,2,3-triazole] | > 75 |  | 
COC(C)(c1cn(CC2CCCCO2)nn1)c1cc(C#CC2CC2)ccc1C (centres unmarked) [Compound I-680] | 50 to 75 |  | 
Cc1ccc(C#CC2CC2)cc1C(CC(F)(F)F)c1cn(CC2OCC(C)(C)CO2)nn1 (centres unmarked) [Compound I-681] |  | 300 to 1000 | > 75
Cc1cc(N2CCN(Cc3ccccn3)CC2)ccc1-c1cn(CC2OCC(C)(C)CO2)cn1 [Compound I-682] | > 75 | 300 to 1000 | 
Cc1cc(N2CCN(Cc3ccccn3)CC2)ccc1-c1cncn1CC1OCC(C)(C)CO1 [Compound I-683] | ≤ 25 |  | 
Cc1cc(C#CC2CC2)ccc1-c1cn(CC2OCC3(CC3)CO2)nn1 [Compound I-686] | > 75 | 300 to 1000 | 
COC(c1cn(CC2CCCCO2)nn1)c1cc(C#CC2CC2)c(F)cc1C (centres unmarked) [Compound I-688] | > 75 | 300 to 1000 | 
Cc1cc(C#CCO)ccc1-c1cn(CC2OCC(F)(F)CO2)nn1 [Compound I-692] | 50 to 75 |  | 
Cc1cc(N2CC(C)(CO)C2)cnc1-c1cn(CCc2ncccn2)nn1 [Compound I-695] | ≤ 25 |  | 
CC(c1ccnc(C#CC2CC2)c1)c1cn(CC2CCCCO2)nn1 (centres unmarked) [Compound I-699] | ≤ 25 |  | 
C(#CC1CC1)c1cnc(-c2cn(C[C@H]3CCCCO3)nn2)c(OC2CC2)c1 [Compound I-701] |  | ≤ 300 | > 75

Second part, the molecule after the results:

inhibition at 10 µM [%] | IC50 [nM] | inhibition at 2 µM [%] | Structure (SMILES)
> 75 |  |  | CC(C)Oc1cc(N2CC(C)(C)C2)cnc1-c1cn(CC2CCCCO2)nn1 (centres unmarked) [Compound I-630]
≤ 25 |  |  | Cc1cc(OCC(F)(F)F)cnc1-c1cn(CC2OCC(C)(C)CO2)nn1 [Compound I-638]
≤ 25 |  |  | Cc1cc(OCC(F)(F)F)cnc1-c1cn(CC2OCC(C)(C)O2)nn1 (centres unmarked) [Compound I-639]
> 75 | 300 to 1000 |  | CCc1cc(N2CC(C)(O)C2)ccc1-c1cn(CC2OCC(C)(C)CO2)nn1 [Compound I-641]
 | 1000 to 3000 | > 75 | CC(C)Oc1cc(C#CC2CC(F)(F)C2)cnc1-c1cn(CC2CCCCO2)nn1 (centres unmarked) [Compound I-649]
> 75 |  |  | Cc1cc(C#CC2CC(F)(F)C2)cnc1-c1cn(CC2OCC(C)(C)CO2)nn1 [Compound I-653]
> 75 | ≤ 300 |  | CN(C)c1cc(N2CC(C)(CO)C2)ccc1-c1cn(CC2OCC(C)(C)CO2)nn1 [Compound I-654]
> 75 | ≤ 300 |  | CC(C)Oc1cc(C#CC2CC2)cnc1-c1cn(C[C@H]2CCCCO2)nn1 [Compound I-659]
> 75 | > 3000 |  | Cc1cc(C#CC2CC(F)(F)C2)ccc1-c1cn(CC2OCC(C)(C)CO2)nn1 [Compound I-662]
> 75 | > 3000 |  | Cc1cc(N2CC3(C2)CN(c2ccccn2)C3)ccc1-c1cn(CC2OCC(C)(C)CO2)nn1 [Compound I-663]
> 75 | ≤ 300 |  | CC(C)Oc1cc(N2CC(C)(C)C2)cnc1-c1cn(CC2OCC(C)(C)CO2)nn1 [Compound I-664]
> 75 | ≤ 300 |  | Cc1cc(N2CC(C)(C)C2)ccc1-c1cn(CC2OCC(C)(C)CO2)nn1 [Compound I-665]
 | ≤ 300 | > 75 | CCc1cc(C#CCN2CC(C)(C)C2)cnc1-c1cn(CC2OCC(C)(C)CO2)nn1 [Compound I-666]
> 75 | 300 to 1000 |  | CN(C)c1cc(N2CC(CO)(CO)C2)ccc1-c1cn(CC2OCC(C)(C)CO2)nn1 [Compound I-667]
 | ≤ 300 | > 75 | Cc1cc(C#CCn2cc(-c3ccc(N(C)C)cc3)nn2)cnc1-c1cn(CC2OCC(C)(C)CO2)nn1 [Compound I-668]
 | ≤ 300 | > 75 | Cc1ccc(C#CC2CC2)cc1Cc1cn(CC2OCC(C)(C)CO2)nn1 [Compound I-669, 4-(5-(cyclopropylethynyl)-2-methylbenzyl)-1-((5,5-dimethyl-1,3-dioxan-2-yl)methyl)-1H-1,2,3-triazole]
 | ≤ 300 | > 75 | Cc1cc(N2CC(C)(CNc3ccccn3)C2)ccc1-c1cn(CC2OCC(C)(C)CO2)nn1 [Compound I-673]

inhibition at 10 µM [%] | IC50 [nM] | inhibition at 2 µM [%] | Structure (SMILES)
 | ≤ 300 | > 75 | CC(C)Oc1cc(C#CCN2CC(C)(C)C2)cnc1-c1cn(CC2OCC(C)(C)CO2)nn1 [Compound I-676]
 | ≤ 300 | > 75 | CC(C)Oc1cc(N2CC(C)(CO)C2)ccc1-c1cn(CC2CC(C)(C)O2)nn1 (centres unmarked) [Compound I-677]
 | 300 to 1000 | > 75 | CC(C)Oc1cc(N2CC(C)(CO)C2)ccc1-c1cn(CC2OCC(C)(C)CO2)nn1 [Compound I-678]
> 75 |  |  | Cc1cc(N2CC3(CN(c4cccnc4)C3)C2)ccc1-c1cn(CC2OCC(C)(C)CO2)nn1 [Compound I-684]
> 75 | 1000 to 3000 |  | Cc1cc(N2CC(C)(C)C2)c(C)cc1-c1cn(CC2OCC(C)(C)CO2)nn1 [Compound I-685]
50 to 75 |  |  | Cc1cc(N2CC(C)(C)C2)ccc1-c1cn(CC2OCC(F)(F)CO2)nn1 [Compound I-687]
> 75 | 1000 to 3000 |  | Cc1cc(N2CC3(CCCN3c3ccccn3)C2)ccc1-c1cn(CC2OCC(C)(C)CO2)nn1 [Compound I-689]
25 to 50 |  |  | Cc1cc(C#CCN)ccc1-c1cn(CC2OCC(C)(C)CO2)nn1 [Compound I-690]
> 75 | 300 to 1000 |  | Cc1cc(N2CCN(C(C)c3ccccn3)CC2)ccc1-c1cn(CC2OCC(C)(C)CO2)nn1 (centres unmarked) [Compound I-691]
> 75 |  |  | CC(C)Oc1cc(N2CC(C)(CO)C2)cnc1-c1cn(CC2OCC(C)(C)CO2)nn1 [Compound I-694]
25 to 50 |  |  | CN(C)c1cc(N2CC(C)(C(=O)O)C2)ccc1-c1cn(CC2OCC(C)(C)CO2)nn1 [Compound I-696]
> 75 | 300 to 1000 |  | Cc1cc(C#CCNC2CC2)ccc1-c1cn(CC2OCC(C)(C)CO2)nn1 [Compound I-697]
> 75 | 300 to 1000 |  | Cc1cc(C#CCN(C)C2CC2)ccc1-c1cn(CC2OCC(C)(C)CO2)nn1 [Compound I-698]
 |  | 50 to 75 | Cc1cc(C#CCN2CC(C)(C)C2)ccc1-c1cn(CC2OCC(F)(F)CO2)nn1 [Compound I-700]
 | ≤ 300 | > 75 | CC1(C)COC(Cn2cc(-c3ncc(C#CC4CC4)cc3OC3CC3)nn2)OC1 [Compound I-702]
> 75 | 300 to 1000 |  | CC1(C)COC(Cn2cc(-c3ncc(N4CC(C)(CO)C4)cc3OC3CC3)nn2)OC1 [Compound I-703]

From patent US12617777B2, “GPR84 antagonists and uses thereof” (Liminal BioSciences Limited, priority 2021, dated 2026)
